# Experimental data as given in patent publication US20060040827A1, “Environmentally safe herbicide, fungicide, bactericide and adjuvant composition” (priority 2004, published 2006).
# Tested on: grass and broad leaf
# Test: Grass and broad leaf kill, cocktails compared against glyphosate (5%)
# Type: in vivo
# Description: This cocktail can be mixed with water prior to use at 1:5 parts of water to 1:200 parts of water. The higher the concentration of the cocktail the faster the kill of the weeds. Cocktail I was compared against glyphosate (5%).
# Compared against Glyphosate at 5%:
# Same as Cocktail I but add concentrated glyphosate to yield 1% glyphosate in mix.
compound,measurement,setting,value
"O=C(O)CNCP(=O)(O)O [Glyphosate, N-(phosphonomethyl) glycine]","Grass and broad leaf kill, 24 hours","24 hours, Cocktail I vs glyphosate at 5%",10%
same,"Broad leaf and grass kill, 24 hours","24 hours, Cocktail II vs glyphosate at 5%",10%
same,"Broad leaf and grass kill, 24 hours","24 hours, Cocktail III (1% glyphosate in mix) vs glyphosate at 5%",10%
same,"Broad leaf and grass kill, 2 days",Cocktail II vs glyphosate at 5%,20%
same,"Broad leaf and grass kill, 2 days",Cocktail III (1% glyphosate in mix) vs glyphosate at 5%,20%
same,"Grass and broad leaf kill, 7 days","7 days, Cocktail I vs glyphosate at 5%",100%
same,"Broad leaf and grass kill, 7 days","7 days, Cocktail II vs glyphosate at 5%",100%
same,"Broad leaf and grass kill, 7 days","7 days, Cocktail III (1% glyphosate in mix) vs glyphosate at 5%",100%
